# Laboratory results published in BindingDB's records for doi:10.1021/jm990412m (University of Queensland, 2000).
# Residues, ends and D or L forms follow the SMILES beside them.
# Experiment: Binding affinity against Protease
smiles,measurement,value
CSCC[C@H](NC(=O)[C@H](CCC(=O)O)NC(=O)[C@H](CC(=O)O)NC(C)=O)C(=O)N[C@@H](CCC(=O)O)C(=O)N[C@@H](CCC(=O)O)C(=O)N[C@@H](CS)C(=O)O [AcAsp-Glu-Met-Glu-Glu-Cys] (Ac-DEMEEC-OH),Ki,600 nM
